Test results taken from publication PMC11237774, “On-target, dual aminopeptidase inhibition provides cross-species antimalarial activity” (mBio, 2024).
Where two headings read alike, the source gives them in different places.

How the values were obtained:
[1] = Binding to Albumax medium by ultracentrifugation; format: in vitro ADME
Protocol: Human plasma was obtained from the Volunteer Blood Donor Registry (Walter & Eliza Hall Institute, Melbourne, Australia), rat plasma was from male Sprague-Dawley rats (Animal Resource Centre, Perth, Western Australia) and mouse plasma was procured as described above. RPMI-1640 media supplemented with 25 mM HEPES, 2 g/L sodium bicarbonate, and 100 mg/L neomycin were additionally supplemented with 5 […] on the day prior to binding assessment. […] Additional aliquots of spiked matrix were maintained at 37°C for 4.2 h but not centrifuged to serve as controls for stability assessment and to obtain a measure of the total concentration in each matrix. Following centrifugation, aliquots of the protein-free supernatant and the non-centrifuged matrix controls were “matrix matched” by addition of an equal volume of the opposite medium (i.e., either blank buffer or blank matrix) and assayed as described above with comparison to calibration standards prepared in 50% matrix/50% PBS.

[2] = test system: P. vivax clinical isolates; experiment: Ex vivo drug susceptibility assay (schizont maturation) on clinical isolates; format: cell-based; conditions: ex vivo clinical isolates, n = 6, read-out: P. vivax median EC50 (range)
Protocol: (§1) Plasmodium isolates were collected from patients attending public health clinics in Timika (Papua, Indonesia), a region endemic for multidrug-resistant strains of P. vivax and P. falciparum ([38][–][40]). Patients with symptomatic malaria presenting to an outpatient facility were recruited into the study if infected with either P. falciparum or P. vivax, with a parasitemia of between 2,000 µL^−1 and 80,000 µL^−1, and the majority (>60%) of asexual parasites at the ring stage of development. Venous blood (5 mL) was collected by venipuncture, and after removal of patient white blood cells using Plasmodipur filters (EuroProxima B.V., The Netherlands), packed infected red blood cells (iRBCs) were used for the ex vivo drug susceptibility assay.
(§2) Drug plates were pre-dosed by diluting the compounds in 50% methanol followed by lyophilization and storage at 4°C. Drug susceptibility of P. vivax and P. falciparum isolates was measured using a protocol modified from the WHO microtest as described previously ([40], [41]). […] A candle jar was used to mature the parasites at 37.0°C for 35–56 h. […] Thick blood films made from each well were stained with 5% Giemsa solution for 30 min and examined microscopically. The number of schizonts per 200 asexual-stage parasites was determined for each drug concentration and normalized to the control well without drug. The dose response data were analyzed using non-linear regression analysis, and the EC50 value was derived using an inhibitory sigmoid Emax model (In Vitro Analysis and Reporting Tool [IVART] [42, 43]).

[3] = test system: P. falciparum clinical isolates; experiment: as above; format: cell-based; conditions: ex vivo clinical isolates, n = 15, read-out: P. falciparum median EC50 (range)
Protocol: as §1, §2

[4] = molecular target: T1, human leukotriene A4 hydrolase (LTA4H) (Homo sapiens, UniProt P09960); experiment: Recombinant aminopeptidase fluorescence assay (H-Ala-NHMec); format: biochemical; conditions: for inhibition at 1.25 µM: 1.25 µM compound; for inhibition at 10 µM: 10 µM compound; for inhibition at 500 µM: 500 µM compound; for inhibition at 1000 µM: 1000 µM compound
T1 construct: purchased OriGene TP307617
T1 sequence (P09960 1-611): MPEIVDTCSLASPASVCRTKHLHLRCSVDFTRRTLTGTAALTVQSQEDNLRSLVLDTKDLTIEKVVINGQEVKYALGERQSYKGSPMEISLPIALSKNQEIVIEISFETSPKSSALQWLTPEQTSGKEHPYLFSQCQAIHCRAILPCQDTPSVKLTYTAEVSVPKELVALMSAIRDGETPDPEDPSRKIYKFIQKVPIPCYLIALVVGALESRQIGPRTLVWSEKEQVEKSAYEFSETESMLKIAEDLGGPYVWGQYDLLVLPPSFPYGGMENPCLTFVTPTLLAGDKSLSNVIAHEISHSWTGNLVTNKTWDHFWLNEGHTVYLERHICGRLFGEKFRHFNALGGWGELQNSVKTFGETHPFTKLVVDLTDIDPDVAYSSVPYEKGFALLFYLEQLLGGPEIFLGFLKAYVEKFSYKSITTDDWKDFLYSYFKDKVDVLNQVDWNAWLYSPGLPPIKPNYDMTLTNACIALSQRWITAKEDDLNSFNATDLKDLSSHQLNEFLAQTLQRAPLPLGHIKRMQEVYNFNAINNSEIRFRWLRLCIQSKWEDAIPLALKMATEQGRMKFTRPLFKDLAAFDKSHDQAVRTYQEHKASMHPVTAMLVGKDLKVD
Protocol: Inhibition of aminopeptidase activity assays were performed against nine aminopeptidases: the M1 alanyl and M17 leucyl aminopeptidases from P. falciparum (PfA-M1; PfA-M17), P. vivax (Pv-M1; Pv-M17), and P. berghei (Pb-M1; Pb-M17), and three human M1 homologs: LTA4H (OriGene TP307617), ERAP1 (OriGene TP314469), and ERAP2 (Creative BioMart ERAP2-304H). The Plasmodium enzymes were produced recombinantly as described previously ([16], [17]), and the human recombinant enzymes were purchased from commercial suppliers as indicated.
Reactions were measured at 37°C in white 384-well plates in a total volume of 25 or 50 µL using a spectrofluorimeter (BMG FLUOstar) with excitation at 355 nm and emission at 460 nm. The fluorescence signal was continuously monitored until a final steady-state velocity, v, was obtained. Inhibition constants were calculated from biological triplicates made from three different protein preparations.
Substrate concentrations were selected to allow sensitive detection of enzyme activity while not exceeding the Km for each enzyme. A compound concentration range was selected to obtain a complete inhibition curve (0%–100 %) in biological triplicate. Where possible, the Ki values were calculated by plotting the initial rates versus inhibitor concentration and fitting to the Morrison equation for tight-binding inhibitors in GraphPad Prism (V.8.4.1; non-linear regression method).

Pf3D7 = experiment: 72 h ring killing assay (SYBR Green I); format: cell-based, P. falciparum; conditions: Plasmodium falciparum, Pf3D7 ring stage
Protocol: Viability assays were performed as previously described ([7]). Sorbitol-synchronized Pf3D7 (a laboratory strain which is broadly sensitive to standard antimalarial drugs) at ring stages was cultured in the presence of drug serially diluted across a 96-well plate at 0.5% parasitemia and 2% hematocrit. Cultures were grown for 72 h before being placed at −80°C. After thawing, cultures were incubated with equal volumes of lysis buffer (20 mM Tris [pH 7.5], 5 mM EDTA, 0.008% [wt/vol] saponin, and 0.008% [vol/vol] Triton x-100) containing 0.2 µL/mL SYBR Green I Nucleic Acid Gel Stain (10,000× in dimethyl sulfoxide [DMSO]; Thermo Fisher). After 1 h incubation, fluorescence intensity was read on a Glomax Explorer Fully Loaded (Promega) at emission wavelengths of 500–550 nm and an excitation wavelength of 475 nm. Graphs were generated using GraphPad Prism (V.8.4.1). Parasite survival was compared with vehicle-treated cultures in three biological replicates performed in triplicate. This EC50 was used in asexual P. falciparum assays unless otherwise stated.

| SMILES | unbound in Albumax medium ([1]; Albumax medium) [%] | Albumax media binding ([1]; Albumax medium used for in vitro activity assessment) [%] | EC50 ([2]; Plasmodium vivax) [nM] | EC50 [2] [nM] | EC50 ([3]; Plasmodium falciparum) [nM] | EC50 [3] [nM] | inhibition at 1.25 µM [4] [%] | inhibition at 10 µM [4] [%] | inhibition at 500 µM [4] [%] | inhibition at 1000 µM [4] [%] | EC50 (Pf3D7) [nM] |
| --- | --- | --- | --- | --- | --- | --- | --- | --- | --- | --- | --- |
| CC(C)(C)CC(=O)NC(C(=O)NO)c1ccc(-c2cc(F)c(F)c(F)c2)cc1 (centres unmarked) [MMV1557817, N-(2-(hydroxyamino)−2-oxo-1-(3′,4′,5′-trifluoro-[1,1′-biphenyl]-4-yl)ethyl)-3,3-dimethylbutanamide] | 15.5 | 84.5 | 69 | 68.6 | 98 | 98.1 | 18 | 16 | 71 | 87 | 39 |
| C[C@H]1[C@H](OC(=O)CCC(=O)O)O[C@@H]2O[C@@]3(C)CC[C@H]4[C@H](C)CC[C@@H]1[C@@]24OO3 [artesunate] | – | – | 0.6 | 1 | 1.2 | 1 | 0 | 12.8 | 20.2 | 36 | 4 |
